The text below walks through data of patent publication US12116388B2, “Amylin receptor agonists” (Novo Nordisk A/S, priority 2022, dated 2024).

By EC50 is commonly meant the concentration that produces a half-maximal response.

Experiment [1] deals with T1, human calcitonin receptor (hCTR) (Homo sapiens, UniProt P30988).
T1 construct: host or cells: BHK (Baby Hamster Kidney), Hollex-1 cell line
T1 sequence (P30988 25-474): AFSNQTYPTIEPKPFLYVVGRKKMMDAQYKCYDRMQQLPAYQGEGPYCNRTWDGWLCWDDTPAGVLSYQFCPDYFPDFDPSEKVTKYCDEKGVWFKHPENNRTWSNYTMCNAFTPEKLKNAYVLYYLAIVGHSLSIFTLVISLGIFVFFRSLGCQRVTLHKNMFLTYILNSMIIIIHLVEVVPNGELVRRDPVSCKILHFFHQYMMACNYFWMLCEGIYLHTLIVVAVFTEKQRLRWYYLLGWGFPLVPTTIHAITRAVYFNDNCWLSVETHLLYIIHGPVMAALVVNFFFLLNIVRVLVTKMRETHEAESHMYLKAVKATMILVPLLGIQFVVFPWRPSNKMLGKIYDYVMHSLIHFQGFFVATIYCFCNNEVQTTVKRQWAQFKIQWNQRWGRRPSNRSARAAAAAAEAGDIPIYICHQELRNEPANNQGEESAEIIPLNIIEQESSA
Nature of the experiment: Human calcitonin receptor (hCTR) in vitro potency assay, CRE-luciferase reporter in BHK cells. In kind it is cell-based. The settings on record: BHK hCTR/CRE-Luc cells, 3 hours incubation, assay buffer with 1% ovalbumin; read-out: hCalcR potency, EC50. A digest of the protocol:
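Luciferase signal from a CRE reporter served as the cAMP read-out after 3 h, 37 °C exposure to compound. Cells were stably transfected BHK expressing hCTR, and the buffer was phenol-red-free DMEM with 10 mM HEPES and 1% ovalbumin. Compounds were tested as 7-point, 7-fold dilutions, often from about 10 nM.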

Another experiment deals with Sprague Dawley (SD) rats. The experiment is described as follows: Acute food intake in ad libitum fed rat model. In kind it is in vivo. The settings on record: single s.c. administration, negative value = reduced food intake. As to the method: Lyophilised compound was dissolved in vehicle, 8 mM phosphate, 250 mM glycerol, 0.007% polysorbate 20, and pH was adjusted to 7.4 with 1N NaOH.
Normal weight Sprague Dawley (SD) rats from Taconic Europe, Denmark, were used for the acute food intake studies. The purpose of these studies was to test in vivo effect on food intake and to provide an indication of the compounds' duration of action. Experiments were conducted with permission from the Danish Animal Experiments Inspectorate and were performed in accordance with the guidelines of the Danish legislation governing animal experimentation (1987) as well as the National Institutes of Health (publication number 85-23) and the European Convention for the Protection of Vertebrate Animals used for Experimental and other Scientific Purposes (Council of Europe No 123, Strasbourg 1985).
Prior to study start, rats were acclimatized to the experimental settings for 14 days. During this period, the animals were handled at least 2 times. Immediately upon arrival, rats were put on a reversed light cycle (dark from 10 am-10 pm or 11 am-11 pm) and were transferred into one of three following food intake measuring systems: FeedWin, BioDaq or HM2. Rats were single housed in the FeedWin and BioDaq system and were housed three a cage in the HM2 system (rats were in this case ID-chipped). During the acclimatization period, in which the rats get used to the new light cycle and diet, the animals had free access to food and water. […] Each amylin analogue was tested in a group of 5-6 rats. A vehicle group of 5-6 rats was included in each experiment and were used as reference point. […] The time of dosing was recorded for each rat.
After dosing, rats were returned to their home cages, where they had access to food and water. Food consumption was recorded individually and continuously by on-line registration for up to 72 h post dosing. At the end of the experiment, body weight was measured again, and animals were euthanized by CO2 overdose.

Starred links: 1 amine or outer side, 2 acyl side, 3 side chain; linkers in the order of their positions; H or OH if unused. Residues, ends and D or L forms follow the SMILES beside them. Groups on a side chain read outwards from the residue. *: point of attachment. C18 diacid = O=C(O)CCCCCCCCCCCCCCCCC(=O)*; γGlu = O=C(O)[C@H](CCC(=O)[*:2])N[*:1]

`CC[C@H](C)[C@H](NC(=O)[C@H](CCCCNC(=O)CC[C@H](NC(=O)CCCCCCCCCCCCCCCCC(=O)O)C(=O)O)NC(=O)CNC(=O)[C@H](Cc1ccccc1)NC(=O)[C@H](CC(N)=O)NC(=O)[C@H](CC(=O)O)NC(=O)[C@H](CO)NC(=O)[C@H](CO)NC(=O)[C@H](Cc1c[nH]cn1)NC(=O)[C@H](Cc1c[nH]cn1)NC(=O)[C@H](CC(C)C)NC(=O)[C@H](Cc1ccccc1)NC(=O)[C@H](CCC(=O)O)NC(=O)[C@H](C)NC(=O)[C@H](CC(C)C)NC(=O)[C@H](CCCNC(=N)N)NC(=O)[C@H](C)NC(=O)[C@@H](NC(=O)[C@H](CCC(N)=O)NC(=O)[C@H](C)NC(=O)[C@@H](NC(=O)[C@H](CO)NC(=O)[C@H](CC(C)C)NC(=O)[C@H](Cc1c[nH]cn1)NC(=O)[C@H](CO)NC(=O)[C@H](C)NC(C)=O)[C@@H](C)O)[C@@H](C)O)C(=O)N[C@@H](CC(C)C)C(=O)N1CCC[C@H]1C(=O)N1CCC[C@H]1C(=O)N[C@H](C(=O)N[C@@H](CC(=O)O)C(=O)N[C@H](C(=O)NCC(=O)N[C@@H](CO)C(=O)N[C@@H](CC(N)=O)C(=O)N[C@H](C(=O)N1CCC[C@H]1C(N)=O)[C@@H](C)O)C(C)C)[C@@H](C)O` [Compound 41, N^1-acetyl,N{Epsilon-25}-[(4S)-4-carboxy-4-(17-carboxyheptadecanoylamino)butanoyl]-[Ala1,Ser2,His3,Leu4,Ser5,Ala7,Gln8,Ala10,Glu14,His17,Asp21,Lys25,Pro28,Pro29,Asp31,Pro37]-human amylin] (Ac-ASHLSTAQTARLAEFLHHSSDNFGK([γGlu-C18 diacid])ILPPTDVGSNTP-NH2): in experiment [1], the EC50 is 1.16 pM. Besides, the “Food intake relative to vehicle (%) 0-24 hr, 3 nmol/kg” value in the experiment with Sprague Dawley (SD) rats (0-24 hr) was −88%. Further, the “Food intake relative to vehicle (%) 24-48 hr, 3 nmol/kg” value in the experiment on Sprague Dawley (SD) rats (24-48 hr) is recorded as −76%. In the experiment with Sprague Dawley (SD) rats (48-72 hr), the “Food intake relative to vehicle (%) 48-72 hr, 3 nmol/kg” value is on record as −15%.

Turning to `CC[C@H](C)[C@H](NC(=O)[C@@H]1CCCN1C(=O)CNC(=O)[C@H](Cc1ccccc1)NC(=O)[C@H](CC(N)=O)NC(=O)[C@H](CC(=O)O)NC(=O)[C@H](CO)NC(=O)[C@H](CO)NC(=O)[C@H](Cc1c[nH]cn1)NC(=O)[C@H](Cc1c[nH]cn1)NC(=O)[C@H](CC(C)C)NC(=O)[C@H](Cc1ccccc1)NC(=O)[C@H](CCC(=O)O)NC(=O)[C@H](C)NC(=O)[C@H](CC(C)C)NC(=O)[C@H](CCCNC(=N)N)NC(=O)[C@H](C)NC(=O)[C@@H](NC(=O)[C@H](CCC(N)=O)NC(=O)[C@H](C)NC(=O)[C@@H](NC(=O)[C@H](CO)NC(=O)[C@H](CC(C)C)NC(=O)[C@H](Cc1c[nH]cn1)NC(=O)[C@H](CO)NC(=O)[C@H](C)NC(=O)CC[C@H](NC(=O)CCCCCCCCCCCCCCCCC(=O)O)C(=O)O)[C@@H](C)O)[C@@H](C)O)C(=O)N[C@@H](CC(C)C)C(=O)N1CCC[C@H]1C(=O)N1CCC[C@H]1C(=O)N[C@H](C(=O)N[C@@H](CC(=O)O)C(=O)N[C@H](C(=O)NCC(=O)N[C@@H](CO)C(=O)N[C@@H](CC(N)=O)C(=O)N[C@H](C(=O)N1CCC[C@H]1C(N)=O)[C@@H](C)O)C(C)C)[C@@H](C)O` [Compound 14, N^1-[(4S)-4-carboxy-4-(17-carboxyheptadecanoylamino)butanoyl]-[Ala1,Ser2,His3,Leu4,Ser5,Ala7,Gln8,Ala10,Glu14,His17,Asp21,Pro25,Pro28,Pro29,Asp31,Pro37]-human amylin] ({C18 diacid-γGlu}-ASHLSTAQTARLAEFLHHSSDNFGPILPPTDVGSNTP-NH2), the EC50 in experiment [1] is 1.63 pM.

Turning to `CC[C@H](C)[C@H](NC(=O)[C@@H]1CCCN1C(=O)CNC(=O)[C@H](Cc1ccccc1)NC(=O)[C@H](Cc1c[nH]cn1)NC(=O)[C@H](Cc1c[nH]cn1)NC(=O)[C@H](CC(C)C)NC(=O)[C@H](Cc1ccccc1)NC(=O)[C@H](CCC(=O)O)NC(=O)[C@H](C)NC(=O)[C@H](CC(C)C)NC(=O)[C@H](CCCNC(=N)N)NC(=O)[C@H](C)NC(=O)[C@@H](NC(=O)[C@H](CCC(N)=O)NC(=O)[C@H](C)NC(=O)[C@@H](NC(=O)[C@H](CO)NC(=O)[C@H](CC(C)C)NC(=O)[C@H](CCC(=O)O)NC(=O)CNC(=O)[C@H](C)NC(=O)CC[C@H](NC(=O)CCCCCCCCCCCCCCCCC(=O)O)C(=O)O)[C@@H](C)O)[C@@H](C)O)C(=O)N[C@@H](CC(C)C)C(=O)N1CCC[C@H]1C(=O)N1CCC[C@H]1C(=O)N[C@H](C(=O)N[C@@H](CC(=O)O)C(=O)N[C@H](C(=O)NCC(=O)N[C@@H](CO)C(=O)N[C@@H](CCC(=O)O)C(=O)N[C@H](C(=O)N1CCC[C@H]1C(N)=O)[C@@H](C)O)C(C)C)[C@@H](C)O` [Compound 16, N^1-[(4S)-4-carboxy-4-(17-carboxyheptadecanoylamino)butanoyl]-[Ala1,Gly2,Glu3,Leu4,Ser5,Ala7,Gln8,Ala10,Glu14,His17,Pro25,Pro28,Pro29,Asp31,Glu35,Pro37],des-(19-22)-human amylin] ({C18 diacid-γGlu}-AGELSTAQTARLAEFLHHFGPILPPTDVGSETP-NH2), in experiment [1], the EC50 is 1.03 pM.
